biological target: T1, Homoserine kinase (Escherichia coli (strain K12), UniProt P00547); experiment: Enzyme Inhibition Assay; settings: pH 7.5; 37 °C
T1 sequence (P00547 whole entry): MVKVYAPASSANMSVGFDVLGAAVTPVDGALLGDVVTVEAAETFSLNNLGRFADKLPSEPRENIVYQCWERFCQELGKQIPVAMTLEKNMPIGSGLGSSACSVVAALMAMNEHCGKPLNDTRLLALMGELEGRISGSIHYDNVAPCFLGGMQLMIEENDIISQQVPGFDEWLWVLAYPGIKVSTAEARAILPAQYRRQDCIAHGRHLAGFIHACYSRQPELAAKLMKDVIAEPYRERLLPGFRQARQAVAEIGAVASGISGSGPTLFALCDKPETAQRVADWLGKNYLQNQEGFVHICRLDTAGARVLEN
Source text: The phosphorylation of L-Hse was monitored by coupling the formation of ADP with pyruvate kinase and lactate dehydrogenase (PK/LDH). The resulting oxidation of NADH was monitored at 340 nm by using a SpectraMax plate reader in a 96-well format.

First: C=CC(=O)c1ccc2ccccc2c1 [Thr1 inhibitor, 1]
Second: CC1NN(c2ccccc2)c2nc(C(F)(F)F)cc(O)c21 (stereo unspecified) [Thr1 inhibitor, 6]
The Ki of the first is 3.7-fold higher: 32 µM for the first, 8.6 µM for the second. The second binds more tightly here.

Compared with O=C1OC2C=CCC=C2C(=O)C1Cc1c(O)c2ccccc2oc1=O (stereo unspecified) [Thr1 inhibitor, 4], O=C1C(O)c2cc(O)c(O)cc2OC1c1ccc(O)c(O)c1 (stereo unspecified) is 59-fold higher in Ki: 0.46 µM for the first, 27.1 µM for the second. The first binds more tightly here.

First: CC(=O)C(C#N)C(=O)Nc1cc(Br)ccc1Br (stereo unspecified)
Second: CC(C)Cc1nc2sc3c(c2c(=O)o1)CCCCC3 [Thr1 inhibitor, 5]
The Ki of the first is 3-fold lower: 12 µM for the first, 35.8 µM for the second. The first binds more tightly here.

Source: BindingDB's records for doi:10.1002/cbic.201100121 (Mcmaster University, 2011)
